Patent US9624161B2 (priority 2009, dated 2017)

Assays:
[1] = test system: liver X receptor (LXR); test: Nuclear receptor cross-reactivity transcriptional activation assay; format: cell-based, human; conditions: agonist and antagonist modes
Description: Compound IV was screened for cross-reactivity against rat isoforms of glucocorticoid receptor (GR), mineralocorticoids receptor (MR), progesterone receptor (PR), androgen receptor (AR) and human isoforms of farnesoid X receptor (FXR), liver X receptor (LXR), peroxisome proliferator-activated receptors (PPAR-α and PPAR-γ), and retinoid X receptor (RXR-α) in both agonist and antagonist modes in transcriptional activation assays.

[2] = Preliminary oral pharmacokinetics in monkeys; format: in vivo, monkey; conditions: preliminary pharmacokinetic studies
Method: Formulations using polyethylene glycol 300 (PEG300) generally produced higher exposures than microemulsions prepared in Tween 80 diluted in deionized water. […] Importantly, in dogs the exposure in the male 30 mg/kg PEG300 oral dose group exceeded the exposure necessary to produce the maximal effect on prostate reduction in the rat model of LH suppression.

[3] = test system: treatment naïve prostate cancer patients; test: Study 5: loading dose study (1000 mg BID, 1500 mg BID) in treatment naïve prostate cancer patients; format: in vivo; conditions: for Castration (%): patients receiving >14 days; for Subjects that reached castrate levels of serum total testosterone: subjects that had reached Day 28
Method: Another study (Study 5) to assess 1000 mg twice per day and 1500 mg twice daily loading doses of Compound IV for 28 days was conducted. Subjects that were castrate on Day 28 received either 1000 mg or 2000 mg Compound IV daily to maintain the castration.
Thirty (30) and 28 subjects were randomized to the 1500 mg BID and 1000 mg BID loading doses, respectively. Among the subjects that had reached Day 28, 90% (18/20) of the subjects in the 1500 mg BID dose group and 94% (17/18) of the subjects in the 1000 mg BID dose group had reached castrate levels of serum total testosterone. During this study, two (2) subjects in the 1500 mg BID dose group experienced a VTE, including one fatal pulmonary embolus (PE) and three (3) subjects in the 1000 mg BID dose group experienced a VTE. See FIG. 26 for an overview of all the clinical studies on Compound IV.

## O=C(c1ccc(O)c(F)c1)N(c1ccc(O)cc1)c1ccc(F)cc1 [Compound IV, 3-fluoro-N-(4-fluorophenyl)-4-hydroxy-N-(4-hydroxyphenyl)benzamide]
[1]
  Agonist or antagonist activity at LXR: did not display any agonist or antagonist activity
[2]
  Oral bioavailability: approximates or exceeds that in dogs
[3]; 1000 mg BID dose group
  Subjects that experienced a VTE: 3 subjects
[3]; 1000 mg BID, D28
  Castration (%): 84.2%
[3]; 1000 mg BID, Ever
  Castration (%): 90%
[3]; 1000 mg BID
  Subjects that reached castrate levels of serum total testosterone: 94%
[3]; 1500 mg BID dose group, including one fatal pulmonary embolus
  Subjects that experienced a VTE: 2 subjects
[3]; 1500 mg BID, D28
  Castration (%): 85.7%
[3]; 1500 mg BID, Ever
  Castration (%): 95.2%
[3]; 1500 mg BID
  Subjects that reached castrate levels of serum total testosterone: 90%
